Measurements from patent publication US11866450B2, “Modulators of Cystic Fibrosis Transmembrane Conductance regulator, pharmaceutical compositions, methods of treatment, and process for making the modulators” (priority 2018, dated 2024).
Where two headings read alike, the source gives them in different places.

Columns and labels:
[1] = snar bond
[2] = snar bond, DMSO
[3] = target: CFTR-mediated chloride transport (Homo sapiens, UniProt P13569); type: cell-based; settings: enteroid cells incubated with test compound 18-24 hours, acute 10 μM forskolin and 300 nM Compound III; for Max. Activity: % of chloride transport with 3 μM Compound A, 3 μM Compound II and 300 nM acute Compound III triple combination control
In short: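 Membrane-potential fluorescence AUC over 15 min quantified CFTR chloride transport after acute forskolin (10 μM), IBMX (100 μM) and Compound III (300 nM) in chloride-free buffer. Human enteroid cells were pretreated with compound for 18–24 h; % Activity is relative to 3 μM Compound A + 3 μM Compound II + 300 nM Compound III.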

[4] = from CC1(C)CC(CCCCCNc2cccc(S(=O)(=O)NC(=O)c3ccc(-n4ccc(OCCC5(C(F)(F)F)CC5)n4)nc3Cl)n2)CN1, 17-membered ring, K2CO3/CsF/3A MS, DMSO, 35.8 mM, 165.0 °C, 16.0 h

Chain of CFTR-mediated chloride transport (P13569 whole entry, looked up): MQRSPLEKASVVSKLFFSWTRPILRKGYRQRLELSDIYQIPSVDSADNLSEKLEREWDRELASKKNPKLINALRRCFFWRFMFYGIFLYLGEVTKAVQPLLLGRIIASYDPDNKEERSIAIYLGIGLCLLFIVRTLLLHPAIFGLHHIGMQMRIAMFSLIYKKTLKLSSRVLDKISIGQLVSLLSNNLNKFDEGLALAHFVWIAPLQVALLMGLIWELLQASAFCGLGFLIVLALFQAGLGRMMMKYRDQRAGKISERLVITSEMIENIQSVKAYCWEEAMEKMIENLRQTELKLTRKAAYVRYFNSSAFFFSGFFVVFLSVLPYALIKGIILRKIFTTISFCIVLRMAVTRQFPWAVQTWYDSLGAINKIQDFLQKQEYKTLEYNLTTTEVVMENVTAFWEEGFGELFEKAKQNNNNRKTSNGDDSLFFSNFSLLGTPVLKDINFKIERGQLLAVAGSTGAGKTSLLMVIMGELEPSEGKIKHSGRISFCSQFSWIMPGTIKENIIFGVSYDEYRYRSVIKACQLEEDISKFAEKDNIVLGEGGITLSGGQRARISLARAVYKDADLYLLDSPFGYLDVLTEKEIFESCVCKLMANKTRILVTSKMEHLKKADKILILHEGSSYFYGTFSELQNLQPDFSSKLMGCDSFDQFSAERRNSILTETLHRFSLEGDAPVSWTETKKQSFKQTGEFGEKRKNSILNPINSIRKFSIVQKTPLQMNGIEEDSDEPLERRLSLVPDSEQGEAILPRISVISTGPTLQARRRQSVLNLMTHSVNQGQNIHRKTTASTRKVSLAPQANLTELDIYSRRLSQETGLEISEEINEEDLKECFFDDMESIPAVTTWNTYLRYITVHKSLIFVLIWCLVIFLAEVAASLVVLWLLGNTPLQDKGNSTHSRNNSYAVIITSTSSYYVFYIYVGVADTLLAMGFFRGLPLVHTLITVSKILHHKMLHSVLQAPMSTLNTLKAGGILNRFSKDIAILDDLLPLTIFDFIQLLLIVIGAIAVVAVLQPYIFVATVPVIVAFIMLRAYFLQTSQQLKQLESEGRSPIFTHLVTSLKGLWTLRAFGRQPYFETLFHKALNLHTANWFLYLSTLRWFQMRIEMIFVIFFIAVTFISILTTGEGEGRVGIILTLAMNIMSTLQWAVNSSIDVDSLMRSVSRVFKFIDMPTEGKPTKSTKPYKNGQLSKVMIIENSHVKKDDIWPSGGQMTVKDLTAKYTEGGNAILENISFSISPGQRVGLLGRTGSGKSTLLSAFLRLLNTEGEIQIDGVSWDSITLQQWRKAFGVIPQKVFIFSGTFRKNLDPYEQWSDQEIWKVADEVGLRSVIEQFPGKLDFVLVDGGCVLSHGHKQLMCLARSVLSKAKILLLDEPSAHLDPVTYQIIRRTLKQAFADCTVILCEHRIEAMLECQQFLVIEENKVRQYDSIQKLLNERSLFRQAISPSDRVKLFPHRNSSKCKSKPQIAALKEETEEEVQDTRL

SMILES | EC50 [3] [nM] | Max. Activity [3] | other results
[2H]C([2H])(COc1ccn(-c2ccc3c(n2)N2C[C@@H](CCCNc4nc(ccc4OCc4ccccc4)S(=O)(=O)NC3=O)CC2(C)C)n1)C1C2(CC2)C12CC2 | – | – | ring closure, isolated yield ([1]; from [2H]C([2H])(COc1ccn(-c2ccc(C(=O)NS(=O)(=O)c3ccc(OCc4ccccc4)c(NCCC[C@@H]4CN(C(=O)OC(C)(C)C)C(C)(C)C4)n3)c(Cl)n2)n1)C1C2(CC2)C12CC2, 15-membered ring, K2CO3/CsF/4A MS, DMSO, 51.0 mM, 150.0 °C, 2 steps): 68%
CC1(C)CC2CCCCCNc3cccc(n3)S(=O)(=O)NC(=O)c3ccc(-n4ccc(OCCC5(C(F)(F)F)CC5)n4)nc3N1C2 (single isomer, unassigned; enantiomer 2) | – | – | ring closure, isolated yield [1, 4]: 50%
CC1(C)C[C@@H]2CCCNc3cccc(n3)S(=O)(=O)NC(=O)c3ccc(Cl)nc3N1C2 | – | – | ring closure, isolated yield ([1]; from 2,6-dichloro-N-[[6-[3-[(3S)-5,5-dimethylpyrrolidin-3-yl]propylamino]-2-pyridyl]sulfonyl]pyridine-3-carboxamide (dihydrochloride salt), 15-membered ring, K2CO3/CsF/3A MS, NMP, 113.8 mM, 150.0 °C): 54%
[2H]C([2H])(Oc1ccn(-c2ccc3c(n2)N2C[C@@H](CCCNc4cccc(n4)S(=O)(=O)NC3=O)CC2(C)C)n1)C([2H])([2H])C1C2(CC2)C12CC2 | – | – | ring closure, isolated yield ([1]; from [2H]C([2H])(Oc1ccn(-c2ccc(C(=O)NS(=O)(=O)c3cccc(NCCC[C@@H]4CN(C(=O)OC(C)(C)C)C(C)(C)C4)n3)c(Cl)n2)n1)C([2H])([2H])C1C2(CC2)C12CC2, 15-membered ring, K2CO3/3A MS, NMP, 22.2 mM, 155.0 °C, 2 steps): 60%
CC1(C)CC2CCCCCNc3cccc(n3)S(=O)(=O)NC(=O)c3ccc(-n4ccc(OCCC5(C(F)(F)F)CC5)n4)nc3N1C2 (single isomer, unassigned; enantiomer 1) | – | – | ring closure, isolated yield [1, 4]: 47%
CC1(C)C[C@@H]2CCCNc3cc(OCc4ccccc4)cc(n3)S(=O)(=O)NC(=O)c3ccc(-n4ccc(OCCCC5(C(F)(F)F)CC5)n4)nc3N1C2 | – | – | ring closure, isolated yield ([1]; from CC1(C)C[C@H](CCCNc2cc(OCc3ccccc3)cc(S(=O)(=O)NC(=O)c3ccc(-n4ccc(OCCCC5(C(F)(F)F)CC5)n4)nc3Cl)n2)CN1, 15-membered ring, K2CO3/CsF, DMSO, 14.1 mM, 160.0 °C, 15.0 h): 56%
CC(C)(C)CCCOC1CCN(c2ccc3c(n2)N2C[C@@H](CCCNc4cccc(n4)S(=O)(=O)NC3=O)CC2(C)C)C1=O (single isomer, unassigned; diastereomer 2) | – | – | ring closure, isolated yield ([1]; from 2-chloro-6-[3-(4,4-dimethylpentoxy)-2-oxo-pyrrolidin-1-yl]-N-[[6-[3-[(3S)-5,5-dimethylpyrrolidin-3-yl]propylamino]-2-pyridyl]sulfonyl]pyridine-3-carboxamide (dihydrochloride salt), 15-membered ring, K2CO3, NMP, 24.7 mM, 155.0 °C): 19%
CC1(C)CCC2CCCNc3cccc(n3)S(=O)(=O)NC(=O)c3ccc(-n4ccc(OCC5C6(CC6)C56CC6)n4)nc3N21 (centres unmarked) | – | – | ring closure, isolated yield ([1]; from 2-chloro-N-[[6-[3-(5,5-dimethylpyrrolidin-2-yl)propylamino]-2-pyridyl]sulfonyl]-6-[3-(dispiro[2.0.2.1]heptan-7-ylmethoxy)pyrazol-1-yl]pyridine-3-carboxamide (dihydrochloride salt), 14-membered ring, K2CO3/CsF, NMP, 123.1 mM): 41%
CC1(C)C[C@@H]2CCCNc3cccc(n3)S(=O)(=O)NC(=O)c3ccc(-n4ccc(OCCC(C)(C)C(F)(F)F)n4)nc3N1C2 [Compound 212, (14S)-12,12-Dimethyl-8-[3-(4,4,4-trifluoro-3,3-dimethylbutoxy)-1H-pyrazol-1-yl]-2λ^6-thia-3,9,11,18,23-pentaazatetracyclo[17.3.1.111,14.05,10]tetracosa-1(22),5,7,9,19(23),20-hexaene-2,2,4-trione] | < 1000 | +++ (+++ is >60%) | ring closure, yield after HPLC ([2]; from CC(C)(C)OC(=O)N1C[C@@H](CCCNc2cccc(S(=O)(=O)NC(=O)c3ccc(-n4ccc(OCCC(C)(C)C(F)(F)F)n4)nc3Cl)n2)CC1(C)C, 15-membered ring, K2CO3/CsF/3A MS, 21.2 mM, 130.0 °C, 2 steps): 51%
CC1(C)CC2CCn3ccc(n3)S(=O)(=O)NC(=O)c3ccc(-n4ccc(OCCCC5(C(F)(F)F)CC5)n4)nc3N1C2 (centres unmarked) [Compound 273, 19,19-Dimethyl-4-(3-{3-[1-(trifluoromethyl)cyclopropyl]propoxy}-1H-pyrazol-1-yl)-10λ^6-thia-1,3,9,14,21-pentaazatetracyclo[15.2.1.111,14.02,7]henicosa-2,4,6,11(21),12-pentaene-8,10,10-trione] | < 1000 | + (+ is <30%) | ring closure, yield after HPLC ([2]; from CC1(C)CC(CCn2ccc(S(=O)(=O)NC(=O)c3ccc(-n4ccc(OCCCC5(C(F)(F)F)CC5)n4)nc3Cl)n2)CN1, 13-membered ring, K2CO3/CsF/3A MS, 25.5 mM, 150.0 °C): 11%
Cc1nn2cc1S(=O)(=O)NC(=O)c1ccc(-n3ccc(OCC(C)(C)C(F)(F)F)n3)nc1N1CC(CCC2)CC1(C)C (centres unmarked) [Compound 281, 12,20,20-trimethyl-4-[3-(3,3,3-trifluoro-2,2-dimethylpropoxy)-1H-pyrazol-1-yl]-10λ^6-thia-1,3,9,13,14-pentaazatetracyclo[16.2.1.111,14.02,7]docosa-2,4,6,11(22),12-pentaene-8,10,10-trione] | 1000 to 3000 | + (+ is <30%) | ring closure, yield after HPLC ([2]; from Cc1nn(CCCC2CNC(C)(C)C2)cc1S(=O)(=O)NC(=O)c1ccc(-n2ccc(OCC(C)(C)C(F)(F)F)n2)nc1Cl, 14-membered ring, K2CO3/CsF/3A MS, 25.9 mM, 150.0 °C): 17%
CC1(C)C[C@@H]2CCCn3ccc(n3)S(=O)(=O)NC(=O)c3ccc(-n4ccc(OCCC(C)(C)C(F)(F)F)n4)nc3N1C2 [Compound 221, (18S)-20,20-Dimethyl-4-[3-(4,4,4-trifluoro-3,3-dimethylbutoxy)-1H-pyrazol-1-yl]-10λ^6-thia-1,3,9,14,22-pentaazatetracyclo[16.2.1.111,14.02,7]docosa-2,4,6,11(22),12-pentaene-8,10,10-trione] | < 1000 | +++ (+++ is >60%) | ring closure, yield after HPLC ([2]; from CC(C)(C)OC(=O)N1C[C@@H](CCCn2ccc(S(=O)(=O)NC(=O)c3ccc(-n4ccc(OCCC(C)(C)C(F)(F)F)n4)nc3Cl)n2)CC1(C)C, 14-membered ring, K2CO3/CsF/3A MS, 22.0 mM, 130.0 °C, 2 steps): 21%
CC1(C)CC2CCCNc3ccc(cn3)S(=O)(=O)NC(=O)c3ccc(-n4ccc(OCCC5(C(F)(F)F)CC5)n4)nc3N1C2 (racemic) [Compound 62, 12,12-Dimethyl-8-(3-{2-[1-(trifluoromethyl)cyclopropyl]ethoxy}-1H-pyrazol-1-yl)-2λ^6-thia-3,9,11,18,20-pentaazatetracyclo[17.2.2.111,14.05,10]tetracosa-1(22),5,7,9,19(23),20-hexaene-2,2,4-trione] | < 1000 | +++ (+++ is >60%) | ring closure, yield after HPLC ([2]; from CC1(C)CC(CCCNc2ccc(S(=O)(=O)NC(=O)c3ccc(-n4ccc(OCCC5(C(F)(F)F)CC5)n4)nc3Cl)cn2)CN1, 16-membered ring, K2CO3/CsF/3A MS, 37.3 mM, 165.0 °C, 19.0 h): 6%
CC(C)(C)COc1ccn(-c2ccc3c(n2)N2CC(CCNc4cccc(n4)S(=O)(=O)NC3=O)CC2(C)C)n1 (centres unmarked) [Compound 1, 11-[3-(2,2-dimethylpropoxy)-1H-pyrazol-1-yl]-7,7-dimethyl-17λ^6-thia-2,8,10,16,22-pentaazatetracyclo[16.3.1.15,8.09,14]tricosa-1(21),9(14),10,12,18(22),19-hexaene-15,17,17-trione] | < 1000 | +++ (+++ is >60%) | ring closure, yield after HPLC ([2]; from CC(C)(C)COc1ccn(-c2ccc(C(=O)NS(=O)(=O)c3cccc(NCCC4CNC(C)(C)C4)n3)c(Cl)n2)n1, 14-membered ring, K2CO3, 155.0 °C, 62.0 h, 2 steps): 10%
CN1CCCC2CN(c3nc(-n4ccc(OCCC(C5CC5)C5CC5)n4)ccc3C(=O)NS(=O)(=O)c3cccc1n3)C(C)(C)C2 (centres unmarked) [Compound 189, 8-[3-(3,3-Dicyclopropylpropoxy)-1H-pyrazol-1-yl]-12,12,18-trimethyl-2λ^6-thia-3,9,11,18,23-pentaazatetracyclo[17.3.1.111,14.05,10]tetracosa-1(22),5,7,9,19(23),20-hexaene-2,2,4-trione] | < 1000 | +++ (+++ is >60%) | ring closure, yield after HPLC ([2]; from CN(CCCC1CNC(C)(C)C1)c1cccc(S(=O)(=O)NC(=O)c2ccc(-n3ccc(OCCC(C4CC4)C4CC4)n3)nc2Cl)n1, 15-membered ring, K2CO3/CsF/4A MS, 24.8 mM, 130.0 °C, 2 steps): 60%
CC1(C)CC2CCCn3ccc(n3)S(=O)(=O)NC(=O)c3ccc(-n4ccc(OCCCC5(C(F)(F)F)CC5)n4)nc3N1C2 (racemic) [Compound 155, 20,20-Dimethyl-4-(3-{3-[1-(trifluoromethyl)cyclopropyl]propoxy}-1H-pyrazol-1-yl)-10λ^6-thia-1,3,9,14,22-pentaazatetracyclo[16.2.1.111,14.02,7]docosa-2(7),3,5,11(22),12-pentaene-8,10,10-trione] | < 1000 | +++ (+++ is >60%) | ring closure, yield after HPLC ([2]; from CC1(C)CC(CCCn2ccc(S(=O)(=O)NC(=O)c3ccc(-n4ccc(OCCCC5(C(F)(F)F)CC5)n4)nc3Cl)n2)CN1, 14-membered ring, K2CO3/CsF/3A MS, 49.7 mM, 140.0 °C, 16.0 h, 2 steps): 51%
CC1(C)C[C@@H]2CCCNc3cccc(n3)S(=O)(=O)NC(=O)c3ccc(-n4ccc(OCCC(C5CCC5)C5CCC5)n4)nc3N1C2 [Compound 231, (14S)-8-[3-(3,3-dicyclobutylpropoxy)-1H-pyrazol-1-yl]-12,12-dimethyl-2λ^6-thia-3,9,11,18,23-pentaazatetracyclo[17.3.1.111,14.05,10]tetracosa-1(22),5,7,9,19(23),20-hexaene-2,2,4-trione] | < 1000 | +++ (+++ is >60%) | ring closure, yield after HPLC ([2]; from CC1(C)C[C@H](CCCNc2cccc(S(=O)(=O)NC(=O)c3ccc(-n4ccc(OCCC(C5CCC5)C5CCC5)n4)nc3Cl)n2)CN1, 15-membered ring, K2CO3/CsF/3A MS, 21.1 mM, 165.0 °C, 16.0 h): 32%
